Laboratory results taken from US4522943A, “Chemical compounds” (Bristol-Myers Company, priority 1982, dated 1985).

What was measured:
[1] = system: gastric secretion; conditions: in animals, including man; cited from earlier work
[2] = in vivo; cited from earlier work
[3] = system: gastric acid secretion; test: Gastric Antisecretory Activity in the Heidenhain Pouch Dog; assay type: in vivo, female dogs; conditions: for Potency Ratio [cimetidine = 1.0] (INTRAVENOUS) / Potency Ratio [cimetidine = 1.0] (ORAL): relative to cimetidine = 1.0
Protocol: The dosage of the compounds of this invention will depend not only on such factors as the weight of the patient, but also on the degree of gastric acid inhibition desired and the potency of the particular compound being utilized. The decision as to the particular dosage to be employed is within the discretion of the physician. […] The usual human adult oral dose of cimetidine is 300 mg, given four times a day. The usual human adult starting oral dosages of the compounds of this invention are readily determined from their oral ED50 in this same test. […] Similar calculations may be made for iv dosages. These starting dosages (and the number of times administered per day) may, of course, be varied by titration of the dosage to the particular circumstances of the specific patient. […] The active ingredient will preferably be administered in equal doses from one to four times a day.
(§1) Med Res., 3, 86 (1975). […] Two of the standard animal models for determining gastric antisecretory activity of histamaine H2 -antagonists are the Gastric Fistula Rat and the Heidenhain Pouch Dog.
Determination of Gastric Antisecretory Activity in the Heidenhain Pouch Dog
Prior to surgery, hematology and blood chemistry profiles are obtained and an assessment made as to the general health of selected female dogs. Dogs are vaccinated with Tissue Vax 5 (DHLP-Pitman-Moore) and housed in general animal quarters for four weeks' observation so incipient diseases may become apparent. Dogs are fasted with water ad libitium 24 hours prior to surgery.
Anesthesia is induced with Sodium Pentothal (Abbott) 25-30 mg/kg iv. Subsequent anesthesia is maintained with methoxyflurane (Pitman-Moore). A mid-line linea alba incision from xiphoid to umbilicus provides good exposure and ease of closure. The stomach is pulled up into the operative field, the greater curvature stretched out at multiple points and clamps placed along the selected line of incision. The pouch is made from the corpus of the stomach so that true parietal cell juice is obtained. About 30% of the corpus volume is resected. The cannula is made of light-weight,biologically-inert material such as nylon or Delrin with dimensions and attachments after DeVito and Harkins [J. Appl. Physiol., 14, 138 (1959)]. Post operatively, dogs are medicated with antibiotics and an analgesic. They are allowed 2-3 months for recovery. Experiments are carried out in the following way: Dogs are fasted overnight (~18 hours) with water ad libitum prior to each experiment. The dogs are placed in a sling and a saphenous vein cannulated for drug administration. Histamine as the base (100 μg/kg/hr and chlorpheniramine maleate (0.25 mg/kg/hr) are infused continuously (in a volume of 6 ml/hr) with a Harvard infusion pump.
Ninety minutes' infusion are allowed for the dogs to reach a steady state of acid output. At this time the drug or normal saline (control) is administered concomitantly with the secretagogue in a volume of 0.5 ml/kg over a 30 second period. When oral studies are to be carried out, the drug is administered via gastric gavage in a volume of 5 ml/kg. Infusion of the secretagogue is continued and 15 minute samples of the gastric juice are taken for 4.5 hours. Each sample is measured to the nearest 0.5 ml and titratable acidity is determined by titrating a 1 ml sample to pH 7.0 with 0.2N NaOH, using an Autoburet and an electrometric pH meter (Radiometer). Titratable acid output is calculated in microequivalents by multiplying the volume in milliliters by the acid concentration in milliequivalents per liter.
Results are expressed as percent inhibition relative to control readings. Dose response curves are constructed and ED50 values are calculated by regression analyses. From 3 to 5 dogs are used at each dose level and a minimum of three dosage levels are utilized for determination of a dose response curve.

[4] = peptic ulcer disease, clinical evaluation; cited from earlier work
[5] = system: histamine H2-receptor; conditions: relative to another H2-antagonist; cited from earlier work
[6] = system: gastric acid secretion; test: Gastric Antisecretory Activity in the Gastric Fistula Rat; assay type: in vivo, Male Long Evans rats; conditions: sc, relative to cimetidine = 1.0, 95% confidence limits on following line
Protocol: as §1
Determination of Gastric Antisecretory Activity in the Gastric Fistula Rat
Male Long Evans rats weighing about 240-260 grams at the time of cannula implantation are used. The design and implantation of the stainless steel cannula into the anterior wall of the fore-stomach are carried out essentially as described by Pare et al. [Laboratory Animal Science, 27, 244 (1977)]. The fistula components are designed and the operative procedure is carried out exactly as described in the above reference. Post operatively the animals are individually housed in solid bottom cages with sawdust and are allowed food and water ad libitum throughout the entire recovery period. Animals are not used for test purposes for at least 15 days after the operative procedure.
The animals are fasted but allowed water ad libitum for 20 hours before the testing procedure is to begin. […]
Titratable acid output is calculated in microequivalents by multiplying the volume in milliliters by the acid concentration in milliequivalents per liter.
Results are expressed as percent inhibition relative to control readings. Dose response curves are constructed and ED50 values are calculated by regression analyses. […]

Structure (SMILES): CNC(=S)NCCCCc1cnc[nH]1 [Burimamide]
- inhibits gastric secretion [1]: inhibits gastric secretion
- oral absorption [2]: poor

Structure (SMILES): CNC(=NC#N)NCCSCc1nc[nH]c1C [Cimetidine]
- ED50 (ORAL) ([3]; oral, histamine-stimulated, 95% confidence limits on following line): 3.29 µmol/kg
- clinical effectiveness [4]: effective therapeutic agent in the treatment of peptic ulcer disease
- H2-antagonist potency / effectiveness [5]: as effective an H2 -antagonist as metiamide

Structure (SMILES): Nc1c(NCCCOc2cccc(CN3CCCCC3)c2)c(=O)c1=O [Example 1, 1-Amino-2-[3-(3-piperidinomethylphenoxy)propylamino]cyclobutene-3,4-dione]
- Potency Ratio [cimetidine = 1.0] (INTRAVENOUS) [3]: 87
- Potency Ratio [cimetidine = 1.0] (ORAL) ([3]; oral): 25

Structure (SMILES): CN(C)Cc1ccc(CSCCNc2c(N)c(=O)c2=O)o1 [Example 2, 1-Amino-2-{2-[(5-dimethylaminomethyl-2-furyl)metylthio]ethylamino}cyclobutene-3,4-dione]
- Potency Ratio [cimetidine = 1.0] (INTRAVENOUS) [3]: ~ 20

Structure (SMILES): CN(C)Cc1ccc(CSCCNc2c(N)c(=O)c2=O)s1 [Example 3, 1-Amino-2-{2-[(5-dimethylaminomethyl-2-thienyl)methylthio]ethylamino}cyclobutene-3,4-dione]
- Potency Ratio [cimetidine = 1.0] [6]: ~ 1

Structure (SMILES): CN(C)Cc1cccc(OCCCNc2c(N)c(=O)c2=O)c1 [Example 9, 1-Amino-2-[3-(3-dimethylaminomethylphenoxy)propylamino]cyclobutene-3,4-dion]
- Potency Ratio [cimetidine = 1.0] (INTRAVENOUS) [3]: ~ 40
- Potency Ratio [cimetidine = 1.0] (ORAL) ([3]; oral): ~ 20

Structure (SMILES): Nc1c(NCCCOc2cccc(CN3CCCCCC3)c2)c(=O)c1=O [Example 10i, 1-amino-2-[3-(3-hexamethyleneiminomethylphenoxy)propylamino]cyclobutene-3,4-dione]
- Potency Ratio [cimetidine = 1.0] (INTRAVENOUS) [3]: > 40

Structure (SMILES): CNC(=S)NCCSCc1nc[nH]c1C [Metiamide]
- H2-antagonist potency / effectiveness [5]: more potent than burimamide
